Patent publication US12226386B2, “Compositions and methods for treating biofilms” (The Regents of the University of California, priority 2018, dated 2025)
Where two headings read alike, the source gives them in different places.

Columns and labels:
[1] = tested on: S. aureus (MRSA) biofilms; test: in vitro sustained inhibition biofilm assay, bacterial; type: cell-based, Staphylococcus aureus
Procedure: In vitro biofilm formation was tested using two assays, sustained inhibition and disruption. Both assays assess biofilm formed on polystyrene plates. The first, tests the effects of amino acid solution on a developing biofilm, while the latter tests the effects of the solution on a pre-formed mature biofilm, both compared to media without supplemented amino acids.
(§1) Other amino acids in the blood of animals could combat bacterial and fungal biofilm and therefore may be useful in treating these bacterial and fungal infections that would lie on the external surfaces of infected animals such as humans and could also be used to combat these pathogens on instruments and surfaces that need to be treated. Two types of biofilm assays were performed: a sustained inhibition assay and a disruption assay. The sustained inhibition assay assessed the compound's ability to prevent biofilm development throughout all stages of biofilm formation, while the disruption assay assessed the compound's ability to break up an existing mature biofilm.
(§2) For fungal biofilm assays, all solutions were prepared in RPMI 1640 medium. All bacterial biofilm solutions were prepared in Tryptic Soy Broth (TSB), supplemented with 1% glucose (henceforth referred to as TSB-G). All subsequent procedures were performed in a manner that maintained sterility. A solution of each amino acid to be tested was prepared in weight to volume concentrations ranging from 0.1-5.0%. Amino acids were also tested in combinations. Compound solutions were homogenized with gentle agitation in the dark (4° C., 24 hours) before use.
(§3) Bacterial strains were streaked on Blood Agar plates (5% sheep blood in Tryptic Soy Agar) and incubated at 37° C. for 24 hours. A single colony from each strain to be tested was inoculated in a TSB broth and grown for 12 hours, at 37° C. shaking at 225 rpm. For the bacterial biofilm inhibition assays, 1 μL of saturated overnight cell culture was added to either 80 μL of TSB-G, or TSB-G supplemented with the amino acid compound solution to be tested, in a 384-well plate. The cells were allowed to adhere to the plate for 60 minutes at 37° C. without shaking. The media was carefully aspirated and 80 μL of TSB-G, or TSB-G supplemented with the amino acid compound solution was added to the plate. The plate was further incubated for 24 hours at 37° C. without shaking. Media was carefully aspirated and the biofilm was measured by optical density at 600 nm. Eight or twelve replicates were performed for each tested condition and the reported values are normalized to the control (TSB-G media only). For the bacterial biofilm disruption assays, 80 μL of TSB-G was added to the plate, along with 1 μL of overnight cell culture. The cells were allowed to adhere to the plate for 60 minutes at 37° C. with no shaking. The media was carefully aspirated and 80 μL of TSB-G was added to the plate. The plate was further incubated for 24 hours at 37° C. with no shaking. Media was carefully aspirated from the mature biofilm and 80 μL of TSB-G, or TSB-G supplemented with the amino acid to be tested, was gently added to the plate. The plate was further incubated for 24 hours at 37° C. without shaking. Media was aspirated and the biofilm was measured by optical density at 600 nm. Twelve replicates were performed for each tested condition and the reported values are normalized to the control (TSB-G media only).
For inhibition assay, 1 μl of overnight cell culture was added to either 80 μl of TSB-G, or TSB-G supplemented with the amino acid to be tested, in a 384-well plate. The cells were allowed to adhere to the plate for 60 minutes at 37° C. with no shaking. The media was carefully aspirated and 80 μl of TSB-G, or TSB-G supplemented with amino acid was added to the plate. The plate was further incubated for 24 hours at 37° C. with no shaking. Media was carefully aspirated and the biofilm was measured by optical density at 600 nm. […]

[2] = tested on: bacteria (S. aureus) biofilm and fungal (C. albicans) biofilm; test: disruption biofilm assay, bacterial and fungal taken together; type: cell-based, Staphylococcus aureus; Candida albicans
Procedure: as §1, §2
Fungal strains were streaked on Yeast Peptone Dextrose (YPD) agar plates and incubated at 30° C. for 48 hours. A single colony from each strain to be tested was inoculated into YPD broth and grown for 12 hours, at 30° C., shaking at 225 rpm. For the fungal biofilm inhibition assay, 1 μl of saturated overnight cell culture was added to either 80 μL of RPMI-1640 or RPMI-1640 supplemented with the amino acid compound solution to be tested, in a 384-well plate. […] Media was carefully aspirated and the biofilm was measured by optical density at 600 nm. […] Media was carefully aspirated and the biofilm was measured by optical density at 600 nm. […]
Bacterial strains were streaked on Blood Agar plates (5% sheep blood in Tryptic Soy Agar) and incubated at 37° C. for 24 hours. […] Media was carefully aspirated and the biofilm was measured by optical density at 600 nm. […]

[3] = tested on: bacterial biofilms (MRSA); test: biofilm assays (sustained inhibition and/or disruption), bacterial; type: cell-based, Staphylococcus aureus; conditions: Tables 4 and 5
Procedure: as §1, §2, §3

[4] = sustained inhibition, S. aureus, 1% amino acid, p<0.001
[5] = disruption, bacterial and fungal biofilm, 1% amino acid

Structure (SMILES)	Reduce B Biofilm [1, 4]	Reduce Both [2, 5]	effect on MRSA biofilms in inhibition and disruption assays [3]	Reduce B Biofilm ([1]; MRSA)	Reduce Both [2]
N[C@@H](CS)C(=O)O [Cysteine, L-cysteine]	●● (two dots [i.e. ●●] signifies major effect (greater than about 30% change))	●● (two dots [i.e. ●●] signifies major effect (greater than about 30% change))	both inhibited and disrupted	–	–
N[C@@H](CC(=O)O)C(=O)O [Aspartic Acid, L-aspartic acid]	●● (two dots [i.e. ●●] signifies major effect (greater than about 30% change))	●● (two dots [i.e. ●●] signifies major effect (greater than about 30% change))	both inhibited and disrupted	–	–
N[C@@H](CCC(=O)O)C(=O)O [Glutamic Acid, L-glutamic acid]	–	–	both inhibited and disrupted	●● (two dots [i.e. ●●] signifies major effect (greater than about 30% change))	● (a single dot [i.e. ●] signifies minor effect (from about 10 to about 30% change))
